# Experimental data as given in ChEMBL document CHEMBL3877314, “Molecular docking, discovery, synthesis, and pharmacological properties of new 6-substituted-2-(3-phenoxyphenyl)-4-phenyl quinoline derivatives; an approach to developing potent DNA gyrase inhibitors/antibacterial agents” (Bioorg Med Chem, 2017).
# Key:
# Escherichia coli = assay: Antibacterial activity against Escherichia coli MTCC 443 at 250 ug/ml after 24 hrs by agar well diffusion method; assay type: functional; details: MTCC 443, 24 h, read-out: IZ
# Pseudomonas aeruginosa = assay: Antibacterial activity against Pseudomonas aeruginosa MTCC 424 at 250 ug/ml after 24 hrs by agar well diffusion method; assay type: functional; details: MTCC 424, 24 h, read-out: IZ
# Staphylococcus aureus = assay: Antibacterial activity against Staphylococcus aureus MTCC 96 at 250 ug/ml after 24 hrs by agar well diffusion method; assay type: functional; details: MTCC 96, 24 h, read-out: IZ
# Streptococcus pyogenes = assay: Antibacterial activity against Streptococcus pyogenes MTCC 442 at 250 ug/ml after 24 hrs by agar well diffusion method; assay type: functional; details: MTCC 442, 24 h, read-out: IZ
# DNA gyrase subunit A = DNA gyrase subunit A (Staphylococcus aureus, UniProt P20831); assay: Inhibition of Staphylococcus aureus DNA gyrase A expressed in Escherichia coli BL21(DE3) using relaxed pBR322 DNA as substrate incubated for 1 hr by bromophenol blue dye based agarose gel electrophoresis method
# Chain of DNA gyrase subunit A (P20831 whole entry): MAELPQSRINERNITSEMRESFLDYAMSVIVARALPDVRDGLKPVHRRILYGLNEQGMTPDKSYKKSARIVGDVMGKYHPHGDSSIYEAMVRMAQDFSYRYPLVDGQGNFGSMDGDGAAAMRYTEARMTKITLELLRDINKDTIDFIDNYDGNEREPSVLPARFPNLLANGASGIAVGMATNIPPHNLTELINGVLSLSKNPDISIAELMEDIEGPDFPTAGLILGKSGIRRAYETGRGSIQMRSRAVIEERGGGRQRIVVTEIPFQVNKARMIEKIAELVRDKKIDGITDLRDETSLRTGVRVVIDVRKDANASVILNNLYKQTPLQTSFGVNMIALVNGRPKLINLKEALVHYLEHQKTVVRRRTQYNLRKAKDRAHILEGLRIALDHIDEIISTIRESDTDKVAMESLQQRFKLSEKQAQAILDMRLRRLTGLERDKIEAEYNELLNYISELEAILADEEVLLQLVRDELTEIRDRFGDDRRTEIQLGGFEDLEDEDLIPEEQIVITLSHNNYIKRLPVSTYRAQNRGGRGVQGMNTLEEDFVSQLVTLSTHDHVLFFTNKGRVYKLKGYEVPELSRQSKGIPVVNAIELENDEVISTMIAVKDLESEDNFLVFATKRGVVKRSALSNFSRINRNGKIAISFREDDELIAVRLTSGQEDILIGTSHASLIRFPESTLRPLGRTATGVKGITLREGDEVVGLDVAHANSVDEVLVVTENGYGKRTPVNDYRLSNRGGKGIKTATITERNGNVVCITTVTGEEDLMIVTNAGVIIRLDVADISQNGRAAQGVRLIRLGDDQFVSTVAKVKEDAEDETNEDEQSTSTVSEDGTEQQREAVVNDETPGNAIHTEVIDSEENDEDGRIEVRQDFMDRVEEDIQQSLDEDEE
# [1] = Growth inhibition of human MCF7 cells after 24 hrs by MTT assay; assay type: functional, cell-based; details: MCF7, 24 h
# [2] = Growth inhibition of human MCF7 cells at 10 to 150 ug/ml after 24 hrs by MTT assay relative to control; assay type: functional
# [3] = Growth inhibition of human G361 cells after 24 hrs by MTT assay; assay type: functional, cell-based; details: G-361, 24 h
# [4] = Growth inhibition of human G361 cells at 10 to 150 ug/ml after 24 hrs by MTT assay relative to control; assay type: functional, G-361
# [5] = Growth inhibition of human MCF10 cells at 10 to 150 ug/ml after 24 hrs by MTT assay; assay type: cell-based; details: mcf10, 24 h
Structure (SMILES),zone of inhibition at 250 µg/mL (Escherichia coli),zone of inhibition at 250 µg/mL (Pseudomonas aeruginosa),zone of inhibition at 250 µg/mL (Staphylococcus aureus),zone of inhibition at 250 µg/mL (Streptococcus pyogenes),IC50 (DNA gyrase subunit A),IC50 [1],growth inhibition (GI) [2],IC50 [3],growth inhibition (GI) [4],growth inhibition (GI) [5]
Fc1ccc2nc(-c3cccc(Oc4ccccc4)c3)cc(-c3ccccc3)c2c1,18.3 mm,10.4 mm,29.9 mm,18.5 mm,0.912 to 0.994 µM,1.68 µM,60.25%,3.85 µM,46.24%,Non-Toxic
Oc1ccc2nc(-c3cccc(Oc4ccccc4)c3)cc(-c3ccccc3)c2c1,26.5 mm,16.5 mm,34.6 mm,29.8 mm,0.842 to 1.07 µM,0.694 µM,72.56%,2.07 µM,58.46%,Non-Toxic
COc1ccc2nc(-c3cccc(Oc4ccccc4)c3)cc(-c3ccccc3)c2c1,21.4 mm,10.8 mm,29.6 mm,22.7 mm,0.53 to 11.5 µM,0.548 µM,74.49%,2.02 µM,59.27%,Non-Toxic
Brc1ccc2nc(-c3cccc(Oc4ccccc4)c3)cc(-c3ccccc3)c2c1,16.4 mm,9.79 mm,22.5 mm,22.4 mm,0.473 to 10.2 µM,11.1 µM,30.81%,14.6 µM,28.89%,Non-Toxic
Oc1c(Cl)cc2nc(-c3cccc(Oc4ccccc4)c3)cc(-c3ccccc3)c2c1Cl,26 mm,21.3 mm,38.5 mm,29.2 mm,0.467 µM,0.702 µM,73.17%,2 µM,60.34%,Non-Toxic
CO[C@@H]1[C@@H](OC(=O)c2ccc(C)[nH]2)[C@@H](O)[C@H](Oc2ccc3c(O)c(NC(=O)c4ccc(O)c(CC=C(C)C)c4)c(=O)oc3c2Cl)OC1(C)C [CHLOROBIOCIN],–,–,–,–,0.93 µM,–,–,–,–,–
O=C(O)c1cn(C2CC2)c2cc(N3CCNCC3)c(F)cc2c1=O [CIPROFLOXACIN],21 to 26.7 mm,21 to 23.8 mm,21 to 26.4 mm,18 to 24.4 mm,–,–,–,–,–,–
COc1cccc2c1C(=O)c1c(O)c3c(c(O)c1C2=O)C[C@@](O)(C(=O)CO)C[C@@H]3O[C@H]1C[C@H](N)[C@H](O)[C@H](C)O1 [DOXORUBICIN],–,–,–,–,–,0.812 to 1.2 µM,71.56%,–,–,–
Clc1ccc2nc(-c3cccc(Oc4ccccc4)c3)cc(-c3ccccc3)c2c1,18.1 mm,6.89 mm,21.6 mm,20.2 mm,0.525 to 11.3 µM,11 µM,32.14%,12 µM,30.45%,Non-Toxic
N#Cc1ccc2nc(-c3cccc(Oc4ccccc4)c3)cc(-c3ccccc3)c2c1,16.5 mm,12.7 mm,26.5 mm,21.2 mm,0.537 to 11.6 µM,0.822 µM,70.64%,2.15 µM,54.38%,Non-Toxic
Cc1cc2nc(-c3cccc(Oc4ccccc4)c3)cc(-c3ccccc3)c2cc1C,22.5 mm,11.4 mm,27.5 mm,22.5 mm,0.533 to 11.5 µM,3.41 µM,48.34%,5.84 µM,38.18%,Non-Toxic
